# In patent US4427582A, “Antimicrobial disulfide prodrugs” (SmithKline Beckman Corporation, priority 1982, dated 1984):
# Where a SMILES comes first, the peptide text is derived from it. The star is where a group is joined. SPy = c1ccc(S*)nc1
# Key:
# Candida albicans β311 = assay: Disk activity against Candida albicans β311; format: cell-based
# Source text: (§1) For example, disk activity against Candida albicans β311 for the prodrug was 0.04 minimal inhibitory concentration with 0.01 for the warhead alone.
# E. coli CB64recA/F'123 = assay: Disc assay for inhibition on seeded agar plates (zones of inhibition after overnight incubation); format: cell-based, Escherichia coli; design: unit not given here; settings: for Zones of inhibition diameter: section C
# Description: The medium was that of Davis and Mingioli, supplemented with 4 μg/ml of thiamine and 50 μg/ml of required amino acid supplements with 1.5% agar for solid media. Seeded agar plates contained 0.1 ml of an overnight culture per 20 ml of molten agar (kept at 49°) containing appropriate supplements.
# […] of test solution was added to 1/4" diameter paper discs and the discs placed on the surface of agar plates which were incubated overnight at 37°. The bacterial strains of E. coli, whose strains are given hereafter, were obtained from the E. coli Genetic Stock Center.
# Zones of inhibition on seeded agar plates after overnight incubation.
# Fungal = Fungal activity in vitro, prodrug compared with non-latentiated warhead; format: cell-based
# Source text: as §1
# [1] = 200 nmol per disc, overnight incubation
# [2] = 800 nmol per disc, overnight incubation
# [3] = 800 nmol per disc, overnight incubation, section B
compound,measurement,setting,value
"[O-][n+]1ccccc1S [2-mercaptopyridyl-1-one, reference compound]",minimal inhibitory concentration (disk activity),Candida albicans β311,0.01
"C[C@H](N)C(=O)N[C@@H](C)C(=O)N[C@@H](CSSCCNc1cc(C(=O)O)nc(C(=O)O)c1)C(=O)O [L-Ala--L-Ala--L-Ala--S--MEPDA, L-alanyl-L-alanyl-β-L-alanyl 2-(2,6-dicarboxy-pyridyl-4)-aminoethyl disulfide]",Zone of inhibition diameter,"E. coli CB64recA/F'123; 30 nmol, tripeptide alone, section D",11
same,Zones of inhibition diameter,"E. coli CB64recA/F'123; 40 nmol per disc, overnight incubation",9
same,Zone of inhibition diameter,"E. coli CB64recA/F'123; 60 nmol, tripeptide alone, section D",15
same,Zones of inhibition diameter,E. coli CB64recA/F'123; [1],16
same,Zones of inhibition diameter,E. coli CB64recA/F'123; [2],24
"C[C@H](N)C(=O)N[C@@H](CSSc1ccccn1)C(=O)O [L-Ala--L-Ala--S--2MP, L-alanyl-β-L-alanyl 2-pyridyl disulfide] (H-Ala-Cys(SPy)-OH)",Zone of inhibition diameter,E. coli CB64recA/F'123; [3],15
"C[C@H](N)C(=O)N[C@@H](C)C(=O)N[C@@H](CSSc1ccccn1)C(=O)O [L-ala- L-Ala--L-ala- S--2MP, L-alanyl-L-alanyl-β-L-alanyl 2-pyridyl disulfide] (H-Ala-Ala-Cys(SPy)-OH)",Zone of inhibition diameter,"E. coli CB64recA/F'123; 40 nmol per disc, overnight incubation, section B",( )
same,Zone of inhibition diameter,"E. coli CB64recA/F'123; 200 nmol per disc, overnight incubation, section B",14
same,Zone of inhibition diameter,E. coli CB64recA/F'123; [3],25
C[C@H](NC(=O)C(N)CCCN)C(=O)N[C@@H](CSSCCNc1cc(C(=O)O)nc(C(=O)O)c1)C(=O)O (stereo partly drawn) [Orn--L-Ala--L-Ala--S--MEPDA],Zones of inhibition diameter,E. coli CB64recA/F'123; [1],10
same,Zones of inhibition diameter,E. coli CB64recA/F'123; [2],12
NCCCC(N)C(=O)NC(CSSCCNc1cc(C(=O)O)nc(C(=O)O)c1)C(=O)O [Orn--L-Ala--S--MEPDA],Zones of inhibition diameter,"E. coli CB64recA/F'123; 250-500 nmol per disc, overnight incubation",13
L-alanyl-β-L-alanyl N-oxy 2-pyridyl disulfide,potential for irritation relative to 2-mercaptopyridyl-1-one,Potential for irritation,lower potential for irritation
same,minimal inhibitory concentration (disk activity),Candida albicans β311,0.04
same,activity in vitro relative to 2-mercaptopyridyl-1-one in non-latentiated form,Fungal,generally less activity
